Results: paper PMC10907753 (Communications Biology, 2024)
Values joined by “and” are separate entries in the source; they are usually repeats but may differ in a detail not shown here. Equal values may be shown once. Read-outs that look alike come from different tables or passages of the source.

Key:
Xcc NAMPT [1] = target: T1, Xcc NAMPT (Xanthomonas campestris pv. campestris, UniProt A0A0H2X5R2); assay: NAMPT enzyme activity, fluorometric NMN assay (kinetic constants); assay type: biochemical
Description: (§1) To ensure the reliability of the results, all assays were performed multiple times. NAMPT enzyme activity was assessed using a chemical approach that converted NMN into a fluorescent derivative, in accordance with established protocols[15],[30].
(§2) The enzymatic reactions were carried out for 15 min at 37 °C, and the quantification of NMN was achieved using the fluorescence method. Briefly, the sample containing NMN (25 μl) was mixed with 10 μl of 20% acetophenone (200 μl acetophenone dissolved in 800 μl DMSO) and 10 μl of 2 M KOH. The mixture was then incubated on ice for 10 minutes before adding 45 μl of 100% formic acid. The resulting mixture was incubated at 37 °C for 15 min. Samples (40 μl) were then transferred to a 384-well plate, and fluorescence intensity was measured using the Victor Nivo Multimode plate reader (Perkin Elmer), with excitation and emission wavelengths set at 355/40 and 435/20 nm, respectively.
Correspondingly, the additions of 20% acetophenone, 2 M KOH, and 100% formic acid were adjusted proportionally. The resulting final samples (120 μl) were transferred to 96-well plates, and the fluorescence values were measured following the same procedure as described earlier.
(§3) The kinetic data was analyzed using Graphpad Prism 8. To determine the hill coefficients, substrate-velocity curves were analyzed by nonlinear regression with an allosteric sigmoidal model using the equation v = Vmax S^h/(Km^h + S^h).

Xcc NAMPT [2] = target: T1, Xcc NAMPT; assay: Determination of IC50 value for FK866; assay type: biochemical
Xcc NAMPT [3] = target: T1, Xcc NAMPT; assay: biochemical
[4] = system: Xcc ΔNamptΔNads (XC_0719 and XC_1067 double deletion mutant); assay type: cell-based, Xanthomonas campestris pv. campestris; conditions: 0.1 mM supplement, 28 °C
Description: The bacterium Xcc was grown in NYG medium at 28 °C and shaked at 200 rpm for 16–18 h. Once the cells had grown to a point where OD600 reached 1.0, they were harvested via centrifugation and washed twice with MMX medium. Following this, a volume of 0.1 ml of the cell suspension was added to 5 ml of fresh MMX medium. […] The culture was grown at 28 °C and the OD600 values were measured every 12 h. The experiments were repeated at least three times to ensure consistency.

[5] = target: Xcc NAMPT H175F-I224F-V291F-I332F quadruple mutant (Xanthomonas campestris pv. campestris, UniProt A0A0H2X5R2, H175F/I224F/I332F/V291F); assay type: biochemical; conditions: for Km / kcat: 3.5 nM quadruple mutant
Description: as §1, §2
The kinetic data was analyzed using Graphpad Prism 8. To determine the hill coefficients, substrate-velocity curves were analyzed by nonlinear regression with an allosteric sigmoidal model using the equation v = Vmax S^h/(Km^h + S^h). […]
mutant. c-d Michaelis–Menten plots for the tunnel-blocked quadruple mutant of Xcc […]
To determine the kinetic parameters of quadruple mutant, a concentration of 3.5 nM mutant was used. […]

[6] = target: R373A+R180A mutant pair of Xcc NAMPT (Xanthomonas campestris pv. campestris, UniProt A0A0H2X5R2, R180A/R373A); assay: NAMPT enzyme activity, fluorometric NMN assay (kinetic constants); assay type: biochemical
Description: as §2
. Correspondingly, the additions of 20% acetophenone, 2 M KOH, and 100% formic acid were adjusted proportionally. The resulting final samples (120 μl) were transferred to 96-well plates, and the fluorescence values were measured following the same procedure as described earlier.
as §3
Fig. S9 Substrate-velocity curve for the R373A+R180A mutant pair of Xcc
of 0.3 nM mutant pair was used.
μM. The error bars depicted on the plot indicate the standard deviation of
measurements taken from three replicates.

[7] = target: Xcc NAMPT with ATP pretreatment (Xanthomonas campestris pv. campestris, UniProt A0A0H2X5R2); conditions: ITC after ATP treatment, sequential binding
Description: Proteins pretreated with ATP were prepared by incubating 1 μM protein and 1 mM ATP at 25 °C for 30 min. […] The ATP was subsequently removed by gel filtration using the Superdex 200 Increase 10/300 GL column. The final concentrations of proteins were measured by Nanodrop.
figure presented is a representative sample from three separate experiments. A
sequential binding sites model was used to fit the binding curves, yielding the
dissociation constant (Kd) and the stoichiometry (N) of the binding reaction.
(1 picture or pasted object on this page, not shown here)

Xcc NAMPT [8] = target: T1, Xcc NAMPT; conditions: read-out: Kd2; ITC, 25 mM NAM into 30 μM NAMPT, sequential binding sites model, second site
human NAMPT [9] = target: T2, human NAMPT (Homo sapiens, UniProt P43490); conditions: human NAMPT for NAM; cited from earlier work
T2 sequence (P43490 whole entry): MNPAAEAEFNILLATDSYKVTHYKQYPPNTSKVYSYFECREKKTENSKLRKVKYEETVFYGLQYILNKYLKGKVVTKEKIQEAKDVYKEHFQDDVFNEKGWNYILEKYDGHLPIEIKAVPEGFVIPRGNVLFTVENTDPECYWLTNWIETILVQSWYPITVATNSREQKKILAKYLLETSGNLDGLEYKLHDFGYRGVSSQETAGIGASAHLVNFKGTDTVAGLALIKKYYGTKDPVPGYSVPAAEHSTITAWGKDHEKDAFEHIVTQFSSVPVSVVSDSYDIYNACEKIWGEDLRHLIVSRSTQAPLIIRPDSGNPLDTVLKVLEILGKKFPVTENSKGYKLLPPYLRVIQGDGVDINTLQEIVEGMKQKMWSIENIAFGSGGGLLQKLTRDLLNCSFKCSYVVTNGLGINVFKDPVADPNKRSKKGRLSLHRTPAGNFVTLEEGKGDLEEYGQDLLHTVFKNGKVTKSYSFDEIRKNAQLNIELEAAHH

human NAMPT [10] = target: T2, human NAMPT; assay: NAMPT enzyme activity, fluorometric NMN assay (kinetic constants); assay type: biochemical; conditions: 30 nM human NAMPT, PRPP 3 to 50 μM
Description: To determine the kinetic parameters of human NAMPT, a concentration of 30 nM His-tagged human NAMPT was used. […] The remaining conditions were kept the same as those employed in the Xcc NAMPT reaction system.
as §2, §3

human NAMPT [11] = target: T2, human NAMPT; conditions: NAMPT activators; cited from earlier work
[12] = substrate of Xcc NAMPT, 37 °C, Michaelis-Menten fit
[13] = FK866 0.4 nM, E=0.4 nM, replicates
[14] = 0.3 nM mutant pair, NAM 0.1 to 4 μM

Nc1ncnc2c1ncn2[C@@H]1O[C@H](COP(=O)(O)OP(=O)(O)OP(=O)(O)O)[C@@H](O)[C@H]1O [ATP]
Km (Xcc NAMPT [1]): 560 ± 60 µM
kcat (Xcc NAMPT [1]; [12]): 4.40 ± 0.16 s⁻¹

O=C(/C=C/c1cccnc1)NCCCCC1CCN(C(=O)c2ccccc2)CC1 [FK866]
IC50 (Xcc NAMPT [2]): 0.00023 µM
Activity % (Xcc NAMPT [2]; FK866 0.02 nM, E=0.4 nM, replicates): 99.2204% and 100.986% and 94.6063% and 98.6899%
Activity % (Xcc NAMPT [2]; FK866 0.04 nM, E=0.4 nM, replicates): 101.785% and 102.935% and 85.505% and 97.238%
Activity % (Xcc NAMPT [2]; FK866 0.1 nM, E=0.4 nM, replicates): 78.2474% and 70.3189% and 72.1819% and 76.3149%
Activity % (Xcc NAMPT [2]; FK866 0.2 nM, E=0.4 nM, replicates): 62.8959% and 69.0568% and 55.7537% and 65.4354%
Activity % (Xcc NAMPT [2]; [13]): 17.7119% and 13.8804% and 14.6162%
activity at 0.0004 µM (Xcc NAMPT [2]; [13]): 14.2%
Activity % (Xcc NAMPT [2]; FK866 1 nM, E=0.4 nM, replicates): 4.02% and 4.725% and 5.923% and 4.615%
Activity % (Xcc NAMPT [2]; FK866 2 nM, E=0.4 nM, replicates): 1.856% and 4.769% and 2.139% and 3.338%
Kd (Xcc NAMPT [3]): 0.0822 µM

O=C(O)c1cccnc1 [NA, nicotinic acid]
growth of ΔNamptΔNads in MMX with supplement [4]: did not grow

NC(=O)c1ccc[n+]([C@@H]2O[C@H](COP(=O)([O-])OP(=O)(O)OC[C@H]3O[C@@H](n4cnc5c(N)ncnc54)[C@H](O)[C@@H]3O)[C@@H](O)[C@H]2O)c1 [NAD+, nicotinamide adenine dinucleotide]
growth of ΔNamptΔNads in MMX with supplement [4]: able to grow

NC(=O)c1cccnc1 [NAM, nicotinamide]
hill coefficient (Xcc NAMPT [1]; NAM substrate-velocity curve, allosteric sigmoidal model): ~ 1.98
Km [5]: 7.33 ± 0.66 µM
kcat [5]: 0.55 ± 0.02 s⁻¹
hill coefficient ([5]; NAM, quadruple mutant): 1.00
Km [6, 14]: 0.08 ± 0.01 µM
kcat [6, 14]: 0.188 ± 0.005 s⁻¹
hill coefficient (H) ([6]; mutant pair, NAM): 1.64 ± 0.32 and 1.64
Kd ([7]; read-out: Kd (first binding site)): 330 µM
Kd ([7]; read-out: Kd (second binding site)): 2990 µM
growth of ΔNamptΔNads in MMX with supplement [4]: did not grow
Kd (Xcc NAMPT [8]): 21000 µM
Km (human NAMPT [9]): 0.005 ± 0.002 µM
Kd (Xcc NAMPT [3]): 1410 µM

NC(=O)c1ccc[n+]([C@@H]2O[C@H](CO)[C@@H](O)[C@H]2O)c1 [NmR, nicotinamide riboside]
growth of ΔNamptΔNads in MMX with supplement [4]: did not grow

O=P(O)(O)OC[C@H]1O[C@H](OP(=O)(O)OP(=O)(O)O)[C@H](O)[C@@H]1O [PRPP]
Km (Xcc NAMPT [1]; [12]): 24.4 ± 6.26 µM
kcat (Xcc NAMPT [1]; [12]): 6.99 ± 0.56 s⁻¹
kcat (human NAMPT [10]): 0.045 ± 0.001 s⁻¹
Km (human NAMPT [10]; 2.5 mM ATP, 10 μM NAM): 5.41 ± 0.58 µM
kcat [5]: 0.44 ± 0.01 s⁻¹
Km ([5]; read-out: Km): 9.56 ± 1.14 µM
fold decrease in Km ([5]; quadruple mutant vs wild-type): 2.55 fold
fold decrease in catalytic efficiency ([5]; quadruple mutant vs wild-type): about 5.80 fold
fold decrease in kcat ([5]; quadruple mutant vs wild-type): 15.89 fold

O=C(NCc1ccncc1)Nc1ccc(S(=O)(=O)N2CC3CCC(C2)O3)cc1 [SBI-797812]
effect on the enzymatic activity of human NAMPT (human NAMPT [11]): almost double
